From US6525001B1, “Substituted pyrimidine and pyridine herbicides” (Mid-American Commercialization Corporation, priority 1997, dated 2003)

Columns and labels:
Type in all cases: in vivo
[1] = test system: johnson grass (Sorghum halepense); test: Test E pre-/postemergence/post directed; parameters: key: 0 is no injury; 100 is complete control; conditions: PREEMERGENCE
In short: (§1)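 Greenhouse pots; compound in non-phytotoxic solvent with surfactant, sprayed preemergence within one day of planting, postemergence at two to four leaf stage (three to twenty cm), or post directed to plant base and soil. Visual injury rated 13 to 21 days after application, 0 (none) to 100 (complete control).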

[2] = test system: common ragweed (Ambrosia elatior); test: Test E pre-/postemergence/post directed; parameters: key: 0 is no injury; 100 is complete control; conditions: PREEMERGENCE, Rate 32 g/ha
In short: as §1

[3] = test system: itchgrass (Rottboellia exaltata); test: Test E pre-/postemergence/post directed; parameters: key: 0 is no injury; 100 is complete control; conditions: PREEMERGENCE
In short: as §1

[4] = test system: surinam grass (Brachiaria decumbens); test: Test E pre-/postemergence/post directed; parameters: key: 0 is no injury; 100 is complete control; conditions: PREEMERGENCE
In short: as §1

[5] = test system: pitted morningglory (Ipomoea lacunosa); test: Test E pre-/postemergence/post directed; parameters: key: 0 is no injury; 100 is complete control; conditions: PREEMERGENCE
In short: as §1

[6] = test system: downy brome (Bromus tectorum); test: Test D; parameters: key: 0 is no effect; 10 is complete control; conditions: PREEMERGENCE, Rate 62 g/ha
[7] = test system: field violet (Viola arvensis); test: Test D; parameters: key: 0 is no effect; 100 is complete control; conditions: POSTEMERGENCE
Procedure: (§2) Compounds evaluated in this test were formulated in a non-phytotoxic solvent mixture which included a surfactant and applied to plants that were in the 1- to 4-leaf stage (postemergence application). A mixture of sandy loam soil and greenhouse potting mix in a 60:40 ratio was used for the postemergence test.
(§3) Plantings of these crops and weed species were adjusted to produce plants of appropriate size for the postemergence test. All plant species were grown using normal greenhouse practices. Crop and weed species include alfalfa (Medicago sativa), annual bluegrass (Poa annua), blackgrass (Alopecurus myosuroides), black nightshade (Solanum nigra), chickweed (Stellaria media), common poppy (Papaver rhoeas), deadnettle (Lamium amplexicaule), downy brome (Bromus tectorum), field violet (Viola arvensis), galium 2 (Galium aparine), green foxtail (Setaria viridis), Italian ryegrass (Lolium multiflorum), jointed goatgrass (Aegilops cylindrica), kochia (Kochia scoparia), lambsquarters (Chenopodium album), lentil (Lens culinaris), littleseed canarygrass (Phalaris minor), pea (Pisum sativum), potato (Solanum tuberosum), rape (Brassica napus), redroot pigweed (Amaranthus retroflexus), Russian thistle (Salsola kali), scentless chamomile (Matricaria inodora), sorghum (Sorghum vulgare), spring barley (Hordeum vulgare), sugar beet (Beta vulgaris), sunflower (Helianthus annuus), ivyleaf speedwell (Veronica hederaefolia), spring wheat (Triticum aestivum), winter wheat (Triticum aestivum), wild buckwheat (Polygonum convolvulus), wild mustard (Sinapis arvensis), wild oat (Avena fatua), windgrass (Apera spica-venti) and winter barley (Hordeum vulgare).
(§4) Treated plants and untreated controls were maintained in a greenhouse for approximately 21 to 28 days, after which all treated plants were compared to untreated controls and visually evaluated. Plant response ratings, summarized in Table D, are based upon a 0 to 100 scale where 0 is no effect and 100 is complete control. A dash response (−) means no test result.

[8] = test system: Russian thistle (Salsola kali); test: Test D; conditions: POSTEMERGENCE
Procedure: as §2, §3, §4

[9] = test system: large crabgrass (Digitaria sanguinalis); test: Test E pre-/postemergence/post directed; parameters: key: 0 is no injury; 100 is complete control; conditions: PREEMERGENCE, Rate 32 g/ha
In short: as §1

[10] = test system: bermudagrass (Cynodon dactylon); test: Test E pre-/postemergence/post directed; parameters: key: 0 is no injury; 100 is complete control; conditions: POSTEMERGENCE
In short: as §1

[11] = test system: Spanishneedles (Bidens bipinnata); test: Test E pre-/postemergence/post directed; parameters: key: 0 is no injury; 100 is complete control; conditions: PREEMERGENCE
In short: as §1

[12] = test system: wild buckwheat (Polygonum convolvulus); test: Test D; parameters: key: 0 is no effect; 100 is complete control; conditions: PREEMERGENCE, Rate 125 g/ha
[13] = test system: Russian thistle (Salsola kali); test: Test E pre-/postemergence/post directed; conditions: PREEMERGENCE
In short: as §1

[14] = test system: barnyardgrass (Echinochloa crus-galli); test: Test E pre-/postemergence/post directed; parameters: key: 0 is no injury; 100 is complete control; conditions: PREEMERGENCE
In short: as §1

[15] = test system: sugarcane (Saccharum officinarum); test: Test E pre-/postemergence/post directed; parameters: key: 0 is no injury; 100 is complete control
In short: as §1

[16] = test system: barnyardgrass (Echinochloa crus-galli); test: Test E pre-/postemergence/post directed; parameters: key: 0 is no effect; 100 is complete control; conditions: PREEMERGENCE
In short: as §1

CCc1cnc(-n2ccc(C(F)(F)F)n2)nc1Cc1cccc(C(F)(F)F)c1 [Compound 46]
Plant response rating, Johnsongrass ([1]; Rate 32 g/ha): 0 | Plant response rating, Johnsongrass ([1]; Rate 64 g/ha): 0 | Plant response rating, Johnsongrass ([1]; Rate 125 g/ha): 0 | Plant response rating, Johnsongrass ([1]; Rate 250 g/ha): 0 | Plant response rating, Com. ragweed [2]: 0 | Plant response rating, Itchgrass ([3]; Rate 32 g/ha): 0 | Plant response rating, Itchgrass ([3]; Rate 64 g/ha): 0 | Plant response rating, Surinam grass ([4]; Rate 32 g/ha): 0 | Plant response rating, Surinam grass ([4]; Rate 64 g/ha): 0

COc1cnc(-c2ccc(C(F)(F)F)cc2)nc1Cc1cccc(C(F)(F)F)c1 [Compound 23]
Plant response rating, P. morninglory ([5]; Rate 32 g/ha): 0 | Plant response rating, P. morninglory ([5]; Rate 64 g/ha): 0

CCc1cnc(-c2ccc(C(F)(F)F)cc2)nc1Cc1cccc(C(F)(F)F)c1 [Compound 22]
Plant response rating, Downy brome [6]: 0 | Plant response rating, Field violet ([7]; Rate 62 g/ha): 100 | Plant response rating, Field violet ([7]; Rate 125 g/ha): 100 | Plant response rating, Russian thistle ([8]; Rate 62 g/ha): 80 | Plant response rating, Russian thistle ([8]; Rate 125 g/ha): 80

Cc1cnc(-n2cnc(C(F)(F)F)c2)nc1Cc1cccc(C(F)(F)F)c1 [Compound 44]
Plant response rating, Johnsongrass ([1]; Rate 64 g/ha): 0 | Plant response rating, Itchgrass ([3]; Rate 32 g/ha): 0 | Plant response rating, Itchgrass ([3]; Rate 64 g/ha): 0 | Plant response rating, Large crabgrass [9]: 0 | Plant response rating, Bermudagrass ([10]; Rate 125 g/ha): 0 | Plant response rating, Bermudagrass ([10]; Rate 250 g/ha): 0

Cc1cnc(-n2cnc(C(F)(F)F)n2)nc1C(=O)c1cccc(C(F)(F)F)c1 [Compound 67]
Plant response rating, Spanishneedles ([11]; Rate 32 g/ha): 0 | Plant response rating, Spanishneedles ([11]; Rate 64 g/ha): 0

Cc1cnc(-n2ccc(C(F)(F)F)n2)nc1Cn1ccc(C(F)(F)F)n1 [Compound 52]
Plant response rating, Wild buckwheat [12]: 100

Cc1cnc(-c2ccc(C(F)(F)F)cc2)nc1Cc1cccc(C(F)(F)F)c1 [Example 1, 5-methyl-2-[4-(trifluoromethyl)phenyl]-4-[[3-(trifluoromethyl)phenyl]methyl]pyrimidine]
Plant response rating, Field violet ([7]; Rate 16 g/ha): 20 | Plant response rating, Field violet ([7]; Rate 31 g/ha): 100 | Plant response rating, Field violet ([7]; Rate 62 g/ha): 100 | Plant response rating, Field violet ([7]; Rate 125 g/ha): 80 | Plant response rating, Russian thistle ([8]; Rate 16 g/ha): 40 | Plant response rating, Russian thistle ([8]; Rate 62 g/ha): 60 | Plant response rating, Russian thistle ([8]; Rate 125 g/ha): 50

Cc1cnc(-c2ccc(C(F)(F)F)cc2)nc1Cc1cccc(OC(F)(F)F)c1 [Compound 15]
Plant response rating, Russian thistle ([13]; Rate 32 g/ha): 70 | Plant response rating, Russian thistle ([13]; Rate 64 g/ha): 90 | Plant response rating, Russian thistle ([13]; Rate 125 g/ha): 95 | Plant response rating, Russian thistle ([13]; Rate 250 g/ha): 95 | Plant response rating, Barnyardgrass ([14]; Rate 32 g/ha): 0 | Plant response rating, Barnyardgrass ([14]; Rate 64 g/ha): 0 | Plant response rating, Sugarcane ([15]; PREEMERGENCE, Rate 32 g/ha): 0 | Plant response rating, Sugarcane ([15]; PREEMERGENCE, Rate 64 g/ha): 0 | Plant response rating, Sugarcane ([15]; PREEMERGENCE, Rate 125 g/ha): 10 | Plant response rating, Sugarcane ([15]; PREEMERGENCE, Rate 250 g/ha): 10

Cc1cnc(-n2ccc(C(F)(F)F)n2)nc1Cc1cccc(C(F)(F)F)c1 [Example 2, 5-methyl-4-[[3-(trifluoromethyl)phenyl]methyl]-2-[3-(trifluoromethyl)-1H-pyrazol-1-yl]pyrimidine]
Plant response rating, Barnyardgrass ([16]; Rate 125 g/ha): 100 | Plant response rating, Barnyardgrass ([16]; Rate 250 g/ha): 100 | Plant response rating, Sugarcane ([15]; POSTEMERGENCE, Rate 32 g/ha): 20 | Plant response rating, Sugarcane ([15]; POSTEMERGENCE, Rate 64 g/ha): 20 | Plant response rating, Sugarcane ([15]; POSTEMERGENCE, Rate 125 g/ha): 20 | Plant response rating, Sugarcane ([15]; POSTEMERGENCE, Rate 250 g/ha): 25 | Plant response rating, Sugarcane ([15]; POSTEMERGENCE, Rate 500 g/ha): 25 | Plant response rating, Sugarcane ([15]; PREEMERGENCE, Rate 64 g/ha): 0

Cc1cnc(-c2ccc(C(F)(F)F)cc2)nc1Cn1ccc(C(F)(F)F)n1 [compound 9]
Plant response rating, Surinam grass ([4]; Rate 32 g/ha): 0 | Plant response rating, Spanishneedles ([11]; Rate 32 g/ha): 0
